Reference: US9944641B2, “Isoquinolinone derivatives useful in the treatment of cancer” (PIERRE FABRE MEDICAMENT, priority 2014, dated 2018)

How the values were obtained:
FLT3 D835Y = molecular target: T1, FLT3 D835Y (Homo sapiens, UniProt P36888, D835Y); assay: Lanthascreen TR-FRET enzymatic assay, FLT3 D835Y; type: binding; conditions: 1 hour at 25° C., 1% DMSO, read-out: Enzymology (IC50) FLT3 D835Y
T1 construct: purchased Merck Millipore 14-610
T1 sequence (P36888 27-993 D835Y): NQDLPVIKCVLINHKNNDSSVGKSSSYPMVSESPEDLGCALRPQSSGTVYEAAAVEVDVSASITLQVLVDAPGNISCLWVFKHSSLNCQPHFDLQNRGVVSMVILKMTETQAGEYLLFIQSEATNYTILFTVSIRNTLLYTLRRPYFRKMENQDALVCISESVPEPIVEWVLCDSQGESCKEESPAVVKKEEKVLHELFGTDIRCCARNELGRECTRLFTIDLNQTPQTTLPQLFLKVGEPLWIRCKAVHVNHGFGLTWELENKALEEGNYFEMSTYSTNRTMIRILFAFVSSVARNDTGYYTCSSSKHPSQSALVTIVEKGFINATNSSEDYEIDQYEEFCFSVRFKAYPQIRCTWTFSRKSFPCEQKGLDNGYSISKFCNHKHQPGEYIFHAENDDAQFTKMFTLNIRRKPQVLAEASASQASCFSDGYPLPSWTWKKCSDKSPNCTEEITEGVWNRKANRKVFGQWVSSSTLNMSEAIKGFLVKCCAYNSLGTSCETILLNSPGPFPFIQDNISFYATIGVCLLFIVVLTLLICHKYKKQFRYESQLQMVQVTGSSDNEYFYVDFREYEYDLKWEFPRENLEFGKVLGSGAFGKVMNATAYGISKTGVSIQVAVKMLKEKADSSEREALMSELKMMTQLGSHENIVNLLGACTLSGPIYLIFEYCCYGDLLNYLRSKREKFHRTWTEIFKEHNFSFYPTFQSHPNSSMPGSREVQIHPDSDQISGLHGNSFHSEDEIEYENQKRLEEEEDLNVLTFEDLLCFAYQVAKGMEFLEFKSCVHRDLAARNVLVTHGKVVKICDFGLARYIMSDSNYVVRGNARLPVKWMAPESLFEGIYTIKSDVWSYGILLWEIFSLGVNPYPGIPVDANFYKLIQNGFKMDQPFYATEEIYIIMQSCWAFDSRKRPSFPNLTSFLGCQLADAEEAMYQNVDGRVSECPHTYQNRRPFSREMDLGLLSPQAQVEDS
Procedure: (§1) Recombinant FLT3 (#PV3182), JAK2 (#PV4210) and JAK3 (#PV3855) enzymes were purchased from Life Technologies. FLT3-ITD (#0778-0000-1) and FLT3^D835Y (#14-610) were respectively purchased from Proquinase and Merck Millipore.
(§2) The assays were conducted in 384-well plates based on Life Technologies Lanthascreen® TR-FRET methodologies.
(§3) FLT3-ITD or FLT3^D835Y assays: 15 nM of FLT3-ITD or FLT3^D835Y, 3 nM of the 236 kinase tracker (Life Technologies #PV5592) and 6 nM of the Europium-tagged anti-GST Lanthascreen® antibody are mixed into 15 μL total volume reaction mixture.
(§4) IC50s were determined from a 8-point dose-response curve spanning a >1000 fold concentration range using a 10 mM compound solution stock into pure DMSO (Sigma #D8418). The overall DMSO concentrations of tested solutions were 1%.
(§5) IC50s were generated with the software Prism (Graphpad).

FLT3-ITD = molecular target: T2, FLT3-ITD (Homo sapiens, UniProt P36888); assay: Lanthascreen TR-FRET enzymatic assay, FLT3-ITD; type: binding; conditions: 1 hour at 25° C., 1% DMSO, read-out: Enzymology (IC50) FLT3-ITD
T2 construct: fused on or other part: GST tag (detected with the Europium-tagged anti-GST antibody)
T2 sequence (P36888 1-993): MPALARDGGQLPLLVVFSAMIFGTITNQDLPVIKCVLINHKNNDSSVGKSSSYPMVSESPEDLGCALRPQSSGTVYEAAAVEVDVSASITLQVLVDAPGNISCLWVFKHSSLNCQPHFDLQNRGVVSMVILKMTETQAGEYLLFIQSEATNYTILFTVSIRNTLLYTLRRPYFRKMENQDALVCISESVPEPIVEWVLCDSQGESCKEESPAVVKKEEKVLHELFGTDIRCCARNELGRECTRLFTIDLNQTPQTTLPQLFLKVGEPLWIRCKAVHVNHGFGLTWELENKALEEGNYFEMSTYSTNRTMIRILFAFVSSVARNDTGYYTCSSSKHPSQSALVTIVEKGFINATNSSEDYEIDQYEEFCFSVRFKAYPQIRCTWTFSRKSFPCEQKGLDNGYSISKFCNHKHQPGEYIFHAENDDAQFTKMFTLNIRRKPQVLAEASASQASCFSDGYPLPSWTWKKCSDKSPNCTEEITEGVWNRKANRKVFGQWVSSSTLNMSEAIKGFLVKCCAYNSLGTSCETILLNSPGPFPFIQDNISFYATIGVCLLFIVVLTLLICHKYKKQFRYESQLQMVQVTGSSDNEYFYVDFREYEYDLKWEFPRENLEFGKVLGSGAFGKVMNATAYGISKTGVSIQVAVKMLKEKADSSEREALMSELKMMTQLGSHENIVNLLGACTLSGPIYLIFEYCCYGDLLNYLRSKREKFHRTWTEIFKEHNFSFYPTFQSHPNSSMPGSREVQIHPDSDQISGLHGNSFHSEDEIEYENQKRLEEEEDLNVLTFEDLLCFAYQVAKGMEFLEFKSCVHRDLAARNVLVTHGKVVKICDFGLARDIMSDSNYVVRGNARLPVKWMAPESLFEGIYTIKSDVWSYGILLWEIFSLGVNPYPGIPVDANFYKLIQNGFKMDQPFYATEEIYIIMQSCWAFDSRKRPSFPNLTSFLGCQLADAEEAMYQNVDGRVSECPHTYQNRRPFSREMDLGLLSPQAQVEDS
Procedure: as §1, §2, §3, §4, §5

Structure (SMILES)	IC50 (FLT3 D835Y)	IC50 (FLT3-ITD)
COc1cc2c(cc1N)c(=O)n(C)c1cnc(Nc3cc(N)cc(F)c3)nc21 [Compound C26, 8-amino-2-((3-amino-5-fluorophenyl)amino)-9-methoxy-5-methylpyrimido [5,4-c]isoquinolin-6(5H)-one]	25 to 100 nM	25 to 100 nM
Cn1c(=O)c2cc(N)ccc2c2nc(Nc3ccc(OCCN4CCCC4)cc3)ncc21 [Compound C34, 8-amino-5-methyl-2-((4-(2-(pyrrolidin-1-yl)ethoxy)phenyl)amino)pyrimido[5,4-c]isoquinolin-6(5H)-one]	< 25 nM	< 25 nM
Cn1c(=O)c2cc(N)ccc2c2nc(Nc3cccc(N)c3)ncc21 [Compound C2, 8-amino-2-((3-aminophenyl)amino)-5-methylpyrimido[5,4-c]isoquinolin-6(5H)-one]	< 25 nM	< 25 nM
CN1CCN(c2cccc(Nc3ncc4c(n3)c3ccc(N)cc3c(=O)n4C)c2)CC1 [Compound C6, 8-amino-5-methyl-2-((3-(4-methylpiperazin-1-yl)phenyl)amino)pyrimido[5,4-c]isoquinolin-6(5H)-one]	< 25 nM	< 25 nM
COc1cc2c(cc1N)c(=O)n(C)c1cnc(Nc3ccc(N4CCN(C)CC4)cc3)nc21 [Compound C10, 8-amino-9-methoxy-5-methyl-2-((4-(4-methylpiperazin-1-yl)phenyl)amino) pyrimido[5,4-c]isoquinolin-6(5H)-one]	< 25 nM	< 25 nM
Cn1c(=O)c2cc(N)ccc2c2nc(Nc3ccc(F)c(N)c3)ncc21 [Compound C22, 8-amino-2-((3-amino-4-fluorophenyl)amino)-5-methylpyrimido[5,4-c]isoquinolin-6(5H)-one]	< 25 nM	< 25 nM
CN1CCN(c2ccc(Nc3ncc4c(n3)c3ccc(N)cc3c(=O)n4C)cc2)CC1 [Compound C4, 8-amino-5-methyl-2-((4-(4-methylpiperazin-1-yl)phenyl)amino)pyrimido[5,4-c]isoquinolin-6(5H)-one]	< 25 nM	< 25 nM
COc1cc2c(cc1N)c(=O)n(C)c1cnc(Nc3ccc(OCCN4CCCC4)cc3)nc21 [Compound C42, 8-amino-9-methoxy-5-methyl-2-((4-(2-(pyrrolidin-1-yl)ethoxy)phenyl)amino) pyrimido[5,4-c]isoquinolin-6(5H)-one]	< 25 nM	< 25 nM
COc1cc2c(cc1N)c(=O)n(C)c1cnc(Nc3ccc(F)c(N)c3)nc21 [Compound C28, 8-amino-2-((3-amino-4-fluorophenyl)amino)-9-methoxy-5-methylpyrimido [5,4-c]isoquinolin-6(5H)-one]	25 to 100 nM	< 25 nM
